Reference: patent publication US20120064505A1, “MEASUREMENT OF MATERIAL PROPERTIES AND RELATED METHODS AND COMPOSITIONS” (Massachusetts Institute of Technology, priority 2010, published 2012)
“Also recorded” adds a separate entry of the source.

Tests used:
[1] = test system: Acute promyelocytic leukemia cells; conditions: differentiated down the neutrophil lineage for three days; cited from earlier work
[2] = test system: P. falciparum-infected RBCs (iRBCs) and co-cultured uninfected RBCs (uRBCs); assay: Microfluidic deformability cytometer: RBC mobility after artesunate treatment; format: cell-based, human; conditions: for separation resolution between iRBCs and uRBCs: after drug treatment vs without
Experimental: The deformability of both iRBCs and uRBCs were measured at 2, 4 and 6 hours after artesunate drug treatment (FIG. 60). A synchronized culture of rings with ˜15% parasitemia was resuspended at 0.1% hematocrit in malaria culture medium containing 0.01, 0.05 or 0.1 μg/ml of artesunate.
Layout program CleWin3.0 was used to design the microfluidic device, which consists of a 500×500 μm^2 inlet reservoir, a 500×500 μm^2 outlet reservoir, and parallel capillary channels with triangular pillar arrays (FIG. 55A). Three different pore-size of 2.5, 3.0 and 4.0 μm were designed for the capillary channels to test optimum deformation condition for the experiment. A silicon mold of the device was made using standard silicon processing techniques. The photolithography step was done using a 5× reduction step-and-repeat projection stepper (Nikon NSR2005i9, Nikon Prevision) and reactive-ion etching (RIE) techniques were used to give the mold a final depth of 4.2 μm. Final device was then casted from the silicon mold using polydimethylsiloxane (PDMS) and was sealed by a glass slide using oxygen plasma.
P. falciparum 3D7A parasites (from Malaria Research and Reference Reagent Source, American Type Culture Collection) were cultured in leukocyte-free human RBCs (Research Blood Components, Brighton Mass.) in RPMI 1640 complete medium as described (Trager and Jensen J. parasitol. 2005). Parasites cultures were synchronized by sorbitol lysis (Lambros, C 1979 J. parasitol.) two hours after merozoite invasion.
1× Phosphate buffered saline (PBS) was mixed with 1% w/v Bovine Serum Albumin (BSA) (Sigma-Aldrich, St. Louis, Mo.) as a stock solution and was fresh made on every experimental day. For experiments tracking fluid flow velocity, 200 nm FluoSpheres europium luminescent microspheres (Molecular Probes, Eugene, Oreg.) were used at a final concentration of 5.0×10^−[…] percent solids. For experiments involving only healthy RBCs, fresh whole blood (Research Blood Components, Brighton, Mass.) was used at 100 times dilution (i.e. 1 μl whole blood with 99 μl stock solution). For experiments involving parasitized cells, 1 ml of cultured cells were spun down at 1,000 rpm for 5 minute; 1 μl of the pellet was then aliquot to 200 μl stock solution.
10 μl of 1×10^−6M thiazole orange Orange (Invitrogen, Carlsbad, Calif.), which stains the RNA of the cell, was added to the aforementioned 200 μl iRBC solution 20 minutes before the experiment. The infected cells would appear fluorescent under the GFP filter set whereas the uninfected cells were seen as dark shadows.
To control the ambient temperature, the microscope surface was replaced by a heating chamber (Olympus), which was preheated to a desired temperature range (i.e. 30-40° C.) for 30 minutes before the beginning of every experiment. […]

RBCs = assay: Deformability cytometer: velocity and passage of glutaraldehyde-treated RBCs; format: cell-based, human; conditions: 30 minutes in PBS; about 0.61 Pa/μm; FIG. 5B
From the text: A mold of the device was made on a silicon wafer using photolithography and reactive-ion etching techniques. A 5× reduction step-and-repeat projection stepper (Nikon NSR2005i9, Nikon Precision) was used for patterning. The spacing between pillars was 3 μm, and the depth of the device was 4.2 μm. The device was made using standard PDMS casting protocols and bonded to a glass slide.
PBS was mixed with 0.2% w/v Pluronic F-108 (BASF, Mount Olive, N.J.) and 1% w/v Bovine Serum Albumin (BSA) (Sigma-Aldrich, St. Louis, Mo.) as a stock solution to prevent RBC adhesion to the device walls. For the fluorescent bead experiments, 200 nm FluoSpheres europium luminescent microspheres (Molecular Probes, Eugene, Oreg.) diluted to a final concentration of 1.25×10^−5 percent solids were used.
In experiments involving blood, 1 μl of whole blood (−50% hematocrit) was diluted in 100 μl of the PBS-pluronic-BSA solution for all of the experiments. In experiments involving parasites that express GFP, no further treatment was performed. In experiments involving healthy RBCs, 1 μl of whole blood (Research Blood Components, Brighton, Mass.), 1 μl of 50 μg/ml of Cell Tracker Orange (Invitrogen, Carlsbad, Calif.), and 98 μl of PBS were mixed with the indicated concentration of glutaraldehyde and allowed to sit for 30 minutes. The sample was then washed 3 times with the PBS-Pluronic-BSA solution. […]

WT T cells = assay: Micropipette aspiration of chemokine-stimulated migratory T cells (WT); format: cell-based, mouse
Experimental: (§1) Cells from the peripheral lymph nodes and the spleen of Balb/c mice and WAS−/− mice on Balb/c background were pooled and enriched using the EasySep Mouse CD8+ T Cell Enrichment Kit from STEMCELL Technologies (British Columbia, Canada). Enrichment was confirmed using fluorescence-activated cell sorting (FACS) by staining the cells with FITC/anti-Thy1.2 and PE/anti-CD8α antibodies (Abs). The'memory T cell population was assessed by evaluating the expression of CD44 and CD62L via FACS. T cells in an activation medium with 100 units/mL IL-2 and 1% anti-CD28 Ab were activated by plate-bound anti-CD3 Abs for 4 day at 37° C. The activation medium included RPMI with 10% FBS, 10 mM HEPES (1M), 1% NEAA, 1% sodium pyruvate (100 mM), 50 μM β-mercaptoethanol, 4 mM L-glutamine, and 100 μg/mL Pen/Strep. Cell activation was verified via FACS measurement of CD25.
(§2) Micropipettes made using a micropipette puller were trimmed to 2.5-3 or 4.5-5 μm inner diameter for testing naïve and activated T cells. MPA glass chambers consisted of a 24 mm×60 mm microscope coverslip bottom, a U-shaped parafilm spacer, and a 22 mm×22 mm microscope coverslip top. The assembly was baked for two hours at 80° C. to ensure good adhesion between the components.
(§3) Enriched WT and WAS−/− T cells in DMEM with 1% BSA and 0.1% Pen/Strep were induced to migrate through polycarbonate Transwell inserts (Costar, Cambridge, Mass.) with 5-μm pores in a 24-well plate toward a CCL19 chemokine source (R&D Systems, Minneapolis, Minn.). Inserts contained 5×10^5 cells in 100 μL of medium, and wells contained 1 mL of medium with either no CCL19 or 100 ng/mL of CCL19. Cells were allowed to migrate for ˜7 hours at 37° C., and those that crossed the membrane were collected and used for MPA studies.
3×10^5 cells in 100 μL RPMI with 10% FBS and 1% HEPES was stained with 10 μL trypan blue. The mixture was added to 600 μL of either the RPMI medium or the T cell activation medium with IL-2 for naïve and activated T cell testing. […] The cell movement in the micropipette was recorded with a CCD camera. […]

WAS−/− T cells [3] = assay: Micropipette aspiration of chemokine-stimulated migratory T cells (WAS−/−); format: cell-based, mouse; conditions: naïve WAS−/− T cells that migrated toward CCL19 100 ng/mL, ~7 hours; mean+/−SD
Experimental: as §1
as §2, with “components. […]” for “components.”
3×10^5 cells in 100 μL RPMI with 10% FBS and 1% HEPES was stained with 10 μL trypan blue. […] The cell movement in the micropipette was recorded with a CCD camera. […]

WAS−/− T cells [4] = assay: In vitro Transwell cell migration toward CCL19 (WAS−/−); format: cell-based, mouse; conditions: seven hours of exposure to CCL19; 5-μm pore Transwell
Experimental: as §3

## CC1=C(/C=C/C(C)=C/C=C/C(C)=C/C(=O)O)C(C)(C)CCC1 [all-trans retinoic acid]
[1]
  compliance increase vs control: 45%

## C[C@H]1[C@H](OC(=O)CCC(=O)O)O[C@@H]2O[C@@]3(C)CC[C@H]4[C@H](C)CC[C@@H]1[C@@]24OO3 [artesunate]
[2]; FIG. 60, 2, 4 and 6 hours, 0.01 to 0.1 μg/ml
  cell mobility change due to drug treatment: significant decrease in cell mobility
[2]; after artesunate treatment
  stiffening effect on iRBCs and uRBCs: stiffening effect on both iRBCs and uRBCs; also recorded: both iRBCs and uRBCs stiffened considerably
[2]
  separation resolution between iRBCs and uRBCs: almost doubled
[2]; listed as Artesunate
  separation resolution between iRBCs and uRBCs: doubled

## O=CCCCC=O [glutaraldehyde]
RBCs
  RBC stiffness / velocity with increasing concentration: progressively stiffer with decreasing velocity

B1: CCL19: chemokine (R&D Systems) used as chemoattractant for T cells (protein, UniProt Q99731 22-98, looked up)
C-C motif chemokine 19: GTNDAEDCCLSVTQKPIPGYIVRNFHYLLIKDGCRVPAVVFTTLRGRQLCAPPDQPWVERIIQRLQRTSAKMKRRSS
WT T cells; migratory WT cells
  reduction of modulus from the value in the absence of CCL19: more than 2 times
WT T cells; migratory WT cells vs activated WT T cells
  stiffness relative to activated cells: about 1.4 times
WT T cells; naïve WT T cells that migrated toward CCL19 100 ng/mL, ~7 hours, mean+/−SD
  average apparent Young's modulus: 128+/−33 Pa
WAS−/− T cells [3]
  average apparent Young's modulus: 152+/−102 Pa
WAS−/− T cells [4]
  cells migrated: ~6.4%
